# Assay results taken from patent publication US20090023773A1, “COMPOSITIONS AND METHODS FOR MODULATING GATED ION CHANNELS” (PainCeptor Pharma Corporation, priority 2007, published 2009).
# Legend:
# [1] = test system: chemically-induced spontaneous pain evoked by intraplantar injection of formalin; assay: Formalin test, model of acute tonic pain (Example 7); assay type: in vivo; conditions: rat; SC, 10 and 300 μmol/kg, 60 min prior to formalin; FIG. 9A
# Experimental: Male Sprague-Dawley rats are housed together in groups of three animals under standard conditions with unrestricted access to food and water. All experiments are conducted according to the ethical guidelines for investigations of experimental pain in conscious animals (Zimmerman, 1983).
# Assessment of formalin-induced flinching behavior in normal, uninjured rats (body weight 200-300 g) is made after formalin (2.5% in saline, 50-100 μl, s.c.) is injected into the plantar surface of the hindpaw using a 27 G needle. Rats are pretreated with test compounds either administered intravenously (IV), by subcutaneous injection (SC) or by orally (PO).
# Nociceptive behavior is determined manually every 5 min by measuring the amount of time spent in each of four behavioral categories: 0, treatment of the injected hindpaw is indistinguishable from that of the contralateral paw; 1, the injected paw has little or no weight placed on it; 2, the injected paw is elevated and is not in contact with any surface; 3, the injected paw is licked, bitten, or shaken. A weighted nociceptive score, ranging from 0 to 3 is calculated by multiplying the time spent in each category by the category weight, summing these products, and dividing by the total time for each 5 min block of time. (Coderre et al., Pain 1993; 54: 43). On the basis of the resulting response patterns, […] of nociceptive behavior are identified and scored: first phase (P1; 0-5 min), interphase (Int; 6-15 min), second phase (P2; […]), phase 2A (P2A; 16-40 min) and phase 2B (P2B; 41-60 min).
# Statistical analysis is performed using the Prism™ 4.01 software package (GraphPad, San Diego, Calif., USA). The difference in response levels between treatment groups and control vehicle group is analyzed using an ANOVA followed by Bonferroni's method for post-hoc pair-wise comparisons. A p value <0.05 is considered to be significant.
# [2] = target: T1, hASIC2a/3 steady state (window) current (Homo sapiens, UniProt Q16515+Q9UHC3); assay: ASIC2a/3 assay, automated two-electrode voltage clamp in oocytes microinjected with hASIC2a and hASIC3 (Example 2); assay type: cell-based; conditions: 50 μM, perfusion at pH 6.5; FIG. 8
# T1 construct: expressed in transfected cells; host or cells: Xenopus laevis oocytes, cRNA microinjection, 1:1 mass ratio
# T1 sequence (Q16515 1-512): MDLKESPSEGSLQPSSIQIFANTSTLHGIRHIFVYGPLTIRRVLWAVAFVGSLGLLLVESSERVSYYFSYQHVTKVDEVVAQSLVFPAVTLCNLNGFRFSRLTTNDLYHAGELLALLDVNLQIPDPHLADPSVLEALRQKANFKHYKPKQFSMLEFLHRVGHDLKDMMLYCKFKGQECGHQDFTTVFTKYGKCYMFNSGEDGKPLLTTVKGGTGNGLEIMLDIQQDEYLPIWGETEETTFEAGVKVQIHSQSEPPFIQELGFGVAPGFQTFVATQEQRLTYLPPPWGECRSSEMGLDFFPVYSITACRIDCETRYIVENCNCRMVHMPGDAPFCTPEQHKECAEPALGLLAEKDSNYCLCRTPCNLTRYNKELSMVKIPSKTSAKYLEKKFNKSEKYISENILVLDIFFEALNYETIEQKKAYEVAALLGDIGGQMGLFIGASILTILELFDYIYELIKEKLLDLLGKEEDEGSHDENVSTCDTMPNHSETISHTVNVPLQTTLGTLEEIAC
# T1 sequence (Q9UHC3 1-531): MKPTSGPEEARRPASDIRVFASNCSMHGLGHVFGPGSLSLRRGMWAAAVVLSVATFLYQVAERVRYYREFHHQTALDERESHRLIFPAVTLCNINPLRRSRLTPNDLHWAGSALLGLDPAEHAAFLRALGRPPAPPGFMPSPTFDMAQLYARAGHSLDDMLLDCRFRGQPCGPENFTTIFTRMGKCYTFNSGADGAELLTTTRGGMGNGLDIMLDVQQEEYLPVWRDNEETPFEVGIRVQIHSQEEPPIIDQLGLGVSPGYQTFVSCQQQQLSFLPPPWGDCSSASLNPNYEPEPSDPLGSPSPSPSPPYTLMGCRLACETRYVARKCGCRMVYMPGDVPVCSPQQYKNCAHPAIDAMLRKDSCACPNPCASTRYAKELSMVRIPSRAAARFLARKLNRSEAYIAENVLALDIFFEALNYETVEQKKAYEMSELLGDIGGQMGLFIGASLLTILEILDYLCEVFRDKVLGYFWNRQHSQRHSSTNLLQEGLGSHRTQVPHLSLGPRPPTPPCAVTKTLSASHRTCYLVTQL
# Experimental: The ASIC2a/3 assay involves methods and procedures commonly in use and have been extensively described in the literature.
# Briefly, a mature female frog is placed on its back after anesthesia, 20 min in 0.1% (w/v) Tricaine (Sigma), and incision is made on the lower abdomen through the skin, muscle and into the peritoneum. Lobes of ovaries are pulled out with forceps, cut and placed in a solution of Ca^2+-free Barth's with 1% (w/v) collagenase Type I (Sigma) added, for 90 minutes. The dissociated eggs are then washed with complete Barth's, supplementd with […] Gentamycin.
# Plasmids containing cDNA for ASIC2a+ASIC3 are linearized and used for cRNA synthesis. The synthesis is done according to the protocol insert of the synthesis kit (e.g. Message Machine, Ambion). The final resuspension of the cRNA is made to provide a concentration of 1 μg/μL. The cDNA's for hASIC2a and hASIC3 are mixed with a 1:1 mass ratio and injected at […] per oocyte. Micro-injected oocytes start expressing hASIC2a3 specific current after 24 h.
# The oocytes micro-injected with hASIC2a and hASIC3 cRNA's are placed in the recording chambers of the automated rig and then impaled with the voltage and current micro-electrodes. […] The voltage and current for each oocyte is recorded in one pass during both applications for later analysis. […]
# [3] = target: T1, hASIC2a/3 steady state (window) current; conditions: supramaximal concentration; Babinski et al. (2000); cited from earlier work
inhibition of the ASIC 2a/3 current [2],SMILES,pain intensity as evaluated by the licking behavior [1],block of the ASIC2A/3 steady state current [3]
specific inhibition,O=C(O)c1ccc(Nc2nc(-c3ccc(Cl)cc3)nc3ccccc23)cc1 [Compound 111],dose-dependent reduction,
,[Gd+3] [gadolinium (Gd^3+)],,completely block
